The source of these data is patent US11066400B2, “Compounds for the treatment of cancer” (Hoffmann-La Roche Inc., priority 2015, dated 2021).

Assay [1] relates to FoxM1_ΔVIIa / FoxM1_FL mRNA (FoxM1 gene splicing). In words: Monitoring expression levels of FoxM1 splice variants using real-time quantitative PCR. The assay is classed as cell-based. Conditions: Fibroblast; human fibroblasts, 24 hours, RT-qPCR, Hill fit of concentration dependence curves. Here is the method:
Human fibroblasts were plated at 10,000 cells/well in 200 μl DMEM with GlutaMAX and 10% FBS in 96-well plates in a cell culture incubator (37° C., 5% CO2, 100% relative humidity). Cells were then treated with compounds at different concentrations (0.1-300 nM, each in 0.5% DMSO) in triplicate for 24 hours. RNA extraction was performed as per instructions mentioned in the Ambion® Cells-to-CT™ Kits from Applied Biosystems®. RNA samples were frozen at −20° C. until further analysis. Relative expression levels of full-length FoxM1 (FoxM1_FL) or FoxM1 lacking exon VIIa (FoxM1_ΔVIIa) with GAPDH for internal control, was measured using one-step multiplex reverse transcription-polymerase chain reaction (RT-PCR). TaqMan® FAM probes were used for relative quantitation of FoxM1_FL or FoxM1_ΔVIIa expression levels and TaqMan® VIC probes were used for relative quantitation of human GAPDH levels. The fidelity of the amplification methods was determined using the ΔΔCt relative quantification method for quantitative PCR.
To investigate an effect on splicing of FoxM1, human fibroblasts were treated for 24 hours with compounds of the present invention in dose response, and analysed by RT-qPCR for presence of mRNA including (FoxM1_FL) or excluding the exon VIIa (FoxM1_ΔVIIa). […] Correspondingly, the mRNAs for FoxM1_ΔVIIa declined. […] The resulting concentration dependence curves of the FoxM1_ΔVIIa splice variant were fitted to a Hill binding equation to yield IC50 values that are described in Table 1. […] Taken together, the data underline a splicing modifying activity in the FoxM1 gene.
On the technique in general: Quantitative PCR measures a nucleic acid by following its amplification.

Assay [2] has as its system SMN protein. The conditions noted are these: taken from Activity Tables of WO 2014/028459, WO 2014/116845, WO 2015/017589; cited from earlier work.

By IC50 is commonly meant the concentration that gives 50% inhibition. One may read the EC50 as the concentration at which the effect is half-maximal.

Consider `CN(c1ccc(-c2ccc(C#N)cc2O)nn1)C1CC(C)(C)NC(C)(C)C1` [Compound 1, 3-hydroxy-4-(6-(methyl(2,2,6,6-tetramethylpiperidin-4-yl)amino)pyridazin-3-yl)benzonitrile], for which inhibition in assay [1] was half-maximal at 41 nM (IC50). This lies in the double-digit nanomolar range. In turn, `CN(c1ccc(-c2ccc(-c3cn[nH]c3)cc2O)nn1)C1CC(C)(C)NC(C)(C)C1` [Compound 2, 5-(1H-pyrazol-4-yl)-2-(6-(methyl(2,2,6,6-tetramethylpiperidin-4-yl)amino)pyridazin-3-yl)phenol] gave an IC50 in assay [1] of 0.9 nM. Regarding `CN(c1ccc(-c2ccc(-c3cnn(C)c3)cc2O)nn1)C1CC(C)(C)NC(C)(C)C1` [Compound 3, 2-(6-(methyl-(2,2,6,6-tetramethylpiperidin-4-yl)amino)pyridazin-3-yl)-5-(1-methyl-1H-pyrazol-4-yl)phenol], 9.8 nM corresponded to half-maximal inhibition in assay [1] (IC50). In assay [1], `CC1(C)CC(Oc2ccc(-c3ccc(-c4cn[nH]c4)cc3O)nn2)CC(C)(C)N1` [Compound 4] gave an IC50 of 17 nM. This IC50 is about 1.7-fold higher than that of the molecule before.

In assay [1], `CC1(C)CC(Oc2ccc(-c3ccc(-n4cccn4)cc3O)nn2)CC(C)(C)N1` [Compound 5] registered a concentration for half-maximal inhibition (IC50) of 278 nM.

`CN(c1ccc(-c2ccc(-c3ccc(=O)n(C)c3)cc2O)nn1)C1CC(C)(C)NC(C)(C)C1` [Compound 7, 5-(3-hydroxy-4-(6-(methyl-(2,2,6,6-tetramethylpiperidin-4-yl)amino)pyridazin-3-yl)phenyl)-1-methylpyridin-2(1H)-one]: the IC50 in assay [1] worked out at 167 nM. This IC50 is about 1.7-fold lower than that of the molecule before. In turn, `CN(c1ccc(-c2cc3ccccc3cc2O)nn1)C1CC(C)(C)NC(C)(C)C1` [Compound 8, 3-(6-(methyl(2,2,6,6-tetramethylpiperidin-4-yl)amino)pyridazin-3-yl)naphthalen-2-ol] returned an IC50 in assay [1] of 3.7 nM.

As to `CN(c1ccc(-c2cc3ccc(O)cc3cc2O)nn1)C1CC(C)(C)NC(C)(C)C1` [Compound 9, 3-(6-(methyl-(2,2,6,6-tetramethylpiperidin-4-yl)amino)pyridazin-3-yl)naphthalene-2,7-diol], the midpoint of inhibition in assay [1], the IC50, lay at 0.7 nM. Compared with the last molecule, the IC50 is about 5.3-fold lower. The same measure, in the same setting: in the case of `COc1ccc2cc(-c3ccc(N(C)C4CC(C)(C)NC(C)(C)C4)nn3)c(O)cc2c1` [Compound 11, 7-methoxy-3-(6-(methyl(2,2,6,6-tetramethylpiperidin-4-yl)amino)pyridazin-3-yl)naphthalen-2-ol] it was 0.8 nM. Molecule `CN(c1nnc(-c2ccc(-c3cn[nH]c3)cc2Cl)s1)C1CC(C)(C)NC(C)(C)C1` [Compound 12, 5-(2-Chloro-4-(1H-pyrazol-4-yl)phenyl)-N-methyl-N-(2,2,6,6-tetramethylpiperidin-4-yl)-1,3,4-thiadiazol-2-amine] displayed a 50% inhibitory concentration (IC50) in assay [1] of 265 nM. Also, the EC50 in assay [2] was 34 nM. Molecule `CN(c1nnc(-c2ccc(-c3ccn(C)c(=O)c3)cc2Cl)s1)C1CC(C)(C)NC(C)(C)C1` [Compound 13, 4-(3-chloro-4-(5-(methyl(2,2,6,6-tetramethylpiperidin-4-yl)amino)-1,3,4-thiadiazol-2-yl)phenyl)-1-methylpyridin-2(1H)-one] displayed a half-inhibitory concentration (IC50) in assay [1] of 345 nM. For the same molecule, the EC50 in assay [2] was 50 nM.

Molecule `CN(c1nnc(-c2cc(F)c(-c3ccn[nH]3)cc2F)s1)C1CC(C)(C)NC(C)(C)C1` [Compound 14, 5-(2,5-difluoro-4-(1H-pyrazol-5-yl)phenyl)-N-methyl-N-(2,2,6,6-tetramethylpiperidin-4-yl)-1,3,4-thiadiazol-2-amine] gave a half-maximal inhibitory concentration (IC50) in assay [1] of 144 nM. Besides, the half-maximal effective concentration (EC50) in assay [2] was 85 nM.
